Experimental data from patent publication US7795380B2, “Compositions and methods for nucleic acid delivery” (University of Iowa Research Foundation, priority 2006, dated 2010).
Where no end group is shown, it is not given here. photolabel = not defined here

Experiments:
[1] = tested on: erythrocytes; details: cited from earlier work
[2] = stability of the linker peptide by LC/MS; format: physicochemical
Method: To test the hypothesis that the new linker would be stable under normal operating conditions, the linker was first synthesized via solid phase peptide synthesis and then purified by preparative reverse phase HPLC. Characterization and purity of the linker was accomplished through analytical reverse phase HPLC and LC/MS (FIG. 11). The stability of the linker peptide was determined by LC/MS after exposure to a variety of conditions including incubations at room temperature, 37° C., 50° C., and exposure to sunlight.
However, this is not surprising since PL-L1 peptide is a photoactive compound and should photoactivate if provided the proper stimulus.

H5WYG: cationic peptide from HA-2 with His in place of Glu (GGLFHAIAAHFIHGGWHGLIHGWWG)
hemolysis activity ([1]; pH 6.4): full hemolytic activity

PL-Tyr-Lys-Lys-Lys (photolabel-YKKK; reading uncertain; also: printed as PL-Tyr-Lys-Lys-Lys) [PL-L1]
stability by LC/MS ([2]; exposure to sunlight): moderate degradation | stability by LC/MS ([2]; room temperature, 37° C., 50° C.): stable

JTS-1: amphipathic acidic fusogenic peptide developed by Gottschalk and coworkers (GGLFEALLELLESLWELLLEA)
higher hemolysis activity than INF-7 ([1]; pH of 5): 8 fold
